We go through six molecules from paper PMC8762706, “Design of Coibamide A Mimetics with Improved Cellular Bioactivity” (ACS Medicinal Chemistry Letters, 2021).

Read-outs that look alike come from different tables or passages of the source. Where a SMILES comes first, the peptide text is derived from it. Bridges are numbered along the chain shown (N, C = ends). [ ]: non-standard residue; d: D form. The star is where a group is joined. Bip = N[C@@H](Cc1ccc(-c2ccccc2)cc1)C(=O)O; 1Nal = N[C@@H](Cc1cccc2ccccc12)C(=O)O; 2Nal = N[C@@H](Cc1ccc2ccccc2c1)C(=O)O; NMe2Val = CC(C)[C@@H](C(=O)*)N(C)C; NMeLys(Me) = CNCCCC[C@H](NC)C(=O)O; NMeI = CC[C@H](C)[C@H](NC)C(=O)O; NMeT = CN[C@H](C(=O)O)[C@@H](C)O; Tic = O=C(O)[C@@H]1Cc2ccccc2CN1; NMeL = CN[C@@H](CC(C)C)C(=O)O; dHiv = CC(C)[C@@H](O)C(=O)O; NMeS = CN[C@@H](CO)C(=O)O; NMeA = CN[C@@H](C)C(=O)O; dNMeA = CN[C@H](C)C(=O)O

The test system of the data set is A549 cells. Briefly: Growth inhibition assay (MTS) in A549 cells. It counts as cell-based. As to conditions: for fold more potent cytotoxicity than 1 (coibamide A): ratio of IC50 values to 1. As to the method:
Growth Inhibition AssayS3
A549 cells were cultured in Dulbecco’s modified Eagle’s medium (DMEM; Sigma) supplemented with 10% (v/v) fetal bovine serum at 37 °C in a 5% CO2-incubator. Growth inhibition assays using A549 cells were performed in 96-well plates (BD Falcon). A549 cells were seeded at 1000 cells/well in 90 μL of culture media, respectively, and were cultured for 24 h. Chemical compounds in DMSO were diluted 50-fold with the culture medium in advance. 30 μL of the chemical diluents were added.
The final volume of DMSO in the medium was equal to 0.5% (v/v). The cells under chemical treatment were incubated for a further 72 h. The wells in the plates were washed twice with the cultured medium without phenol-red. After 1-hour incubation with 100 μL of the medium, the cell culture in each well was supplemented with 20 μL of the MTS reagent (Promega), followed by incubation for additional 40 min. Absorbance at 490 nm of each well was measured using a Wallac 1420 ARVO SX multilabel counter (Perkin Elmer). Three experiments were performed per condition and the averages of inhibition rates in each condition were evaluated to determine IC50 values using the GraphPad Prism software.

[1] abbreviates: read-out: IC50 (concentration for 50% growth inhibition of A549 cells), MTS assay, 72 h treatment, 0.5% DMSO, absorbance 490 nm, n = 3.
The mark [2] stands for this setting: read-out: IC50 (concentration for 50% growth inhibition of A549 cells), MTS assay, 72 h treatment, n = 3.

Consider `CC[C@H](C)[C@H]1C(=O)N[C@@H](C)C(=O)N(C)[C@@H](CC(C)C)C(=O)N2Cc3ccccc3C[C@H]2C(=O)N(C)CCCC[C@H](N(C)C(=O)[C@H](CC(C)C)N(C)C(=O)[C@H](C)N(C)C(=O)[C@H](OC(=O)[C@H](C(C)C)N(C)C)C(C)C)C(=O)N(C)[C@@H](C)C(=O)N1C` [10o] (NMe2Val-[dHiv][NMeA][NMeL][NMeLys(Me)][NMeA][NMeI]A[NMeL][Tic]; lactam 4-C), for which, for the setting “MTS assay”, the “cytotoxicity / bioactivity in words” value is listed as “loss of bioactivity”. Besides, the IC50 under setting [1] is more than 10 µM.
For `CC[C@H](C)[C@H]1C(=O)N[C@@H](C)C(=O)N(C)[C@@H](CC(C)C)C(=O)N[C@@H](Cc2cccc3ccccc23)C(=O)N(C)CCCC[C@H](N(C)C(=O)[C@H](CC(C)C)N(C)C(=O)[C@H](C)N(C)C(=O)[C@H](OC(=O)[C@H](C(C)C)N(C)C)C(C)C)C(=O)N(C)[C@@H](C)C(=O)N1C` [10p] (NMe2Val-[dHiv][NMeA][NMeL][NMeLys(Me)][NMeA][NMeI]A[NMeL][1Nal]; lactam 4-C), the IC50 under setting [1] was determined as 4.8 ± 0.5 µM.
As to `CC[C@H](C)[C@H]1C(=O)N[C@@H](C)C(=O)N(C)[C@@H](CC(C)C)C(=O)N[C@@H](Cc2ccc3ccccc3c2)C(=O)N(C)CCCC[C@H](N(C)C(=O)[C@H](CC(C)C)N(C)C(=O)[C@H](C)N(C)C(=O)[C@H](OC(=O)[C@H](C(C)C)N(C)C)C(C)C)C(=O)N(C)[C@@H](C)C(=O)N1C` [10q] (NMe2Val-[dHiv][NMeA][NMeL][NMeLys(Me)][NMeA][NMeI]A[NMeL][2Nal]; lactam 4-C), under setting [1], the IC50 worked out at 0.28 ± 0.03 µM.
In the case of `CC[C@H](C)[C@H]1C(=O)N[C@@H](C)C(=O)N(C)[C@@H](CC(C)C)C(=O)N[C@@H](Cc2ccc(OC)cc2)C(=O)N(C)[C@H](C)C(=O)O[C@H](C)[C@H](N(C)C(=O)[C@H](CC(C)C)N(C)C(=O)[C@H](COC)N(C)C(=O)[C@H](OC(=O)[C@H](C(C)C)N(C)C)C(C)C)C(=O)N(C)[C@@H](COC)C(=O)N1C` [coibamide A] (NMe2Val-[dHiv][NMeS](Me)[NMeL][NMeT][NMeS](Me)[NMeI]A[NMeL]Y(Me)[dNMeA]; ester 4-C), under setting [2], the IC50 was 0.0014 ± 0.0004 µM.
`CC[C@H](C)[C@H]1C(=O)N[C@@H](C)C(=O)N(C)[C@@H](CC(C)C)C(=O)N[C@@H](Cc2ccc(-c3ccccc3)cc2)C(=O)N(C)[C@H](C)C(=O)O[C@H](C)[C@H](N(C)C(=O)[C@H](CC(C)C)N(C)C(=O)[C@H](COC)N(C)C(=O)[C@H](OC(=O)[C@H](C(C)C)N(C)C)C(C)C)C(=O)N(C)[C@@H](COC)C(=O)N1C` [compound 11, [Bph^10]-CbA] (NMe2Val-[dHiv][NMeS](Me)[NMeL][NMeT][NMeS](Me)[NMeI]A[NMeL][Bip][dNMeA]; ester 4-C): the “fold more potent cytotoxicity than 1 (coibamide A)” value came to 12 fold.
On to `CC[C@H](C)[C@H]1C(=O)N[C@@H](C)C(=O)N(C)[C@@H](CC(C)C)C(=O)N[C@@H](Cc2ccc(-c3ccccc3)cc2)C(=O)N(C)[C@H](C)C(=O)O[C@H](C)[C@H](N(C)C(=O)[C@H](CC(C)C)N(C)C(=O)[C@H](C)N(C)C(=O)[C@H](OC(=O)[C@H](C(C)C)N(C)C)C(C)C)C(=O)N(C)[C@@H](C)C(=O)N1C` [compound 12, [MeAla^3, MeAla^6, Bph^10]-CbA] (NMe2Val-[dHiv][NMeA][NMeL][NMeT][NMeA][NMeI]A[NMeL][Bip][dNMeA]; ester 4-C), for which the “fold more potent cytotoxicity than 1 (coibamide A)” value was 5.6 fold. For the same molecule, the IC50 under setting [2] was found to be 0.00025 µM.
